The values that follow come from patent publication US4340539A, “Derivatives of 6-bromo penicillanic acid” (priority 1980, dated 1982).

Like-named read-outs stand apart in the source and are kept apart here.

The subject of one data set is β-lactamase enzyme RTEM. Particulars: cited from earlier work.
Another data set can be described thus: Hygroscopicity. Format: physicochemical. To be noted: listed as 2β-chloromethyl-2α-methylpenam-3α-carboxylic acid sulfone.
The nature of data set [1]: Storage stability of free acid. Format: physicochemical. To be noted: 23° C., seven days.
Data set [2] is described as follows: Blood levels after oral administration to mice (Table 4). Format: in vivo. Particulars: mouse; for concentration at […]: assay organism S. aureus A-9606, read-out: Blood level.
The next data set is described as follows: in vivo. Also noted: species or system mice. To be noted: mouse, blood, po, 100 mg/kg, Test 2, oral 100 mg/kg, 60 min; read-out: Blood level. From the text: Compounds prepared in 5% Propylene Glycol & TweenCMC-H2 O.
Values in parentheses are 95% confidence limits.
Assay Organism: E. coli A9675 (pH = 6.6, 0.1% inoculum)

Data set [3] concerns β-lactamase producing strains of E. coli. The data set is described as follows: Therapeutic efficacy of amoxicillin in combinations with BL-P2024 in infected mice (Table 7). Format: in vivo. Particulars: oral.
The nature of data set [4]: Blood levels and half-life of BL-P2024 after oral administration of various doses to mice (Table 5). Format: in vivo. To be noted: mouse; for concentration at 0.5 h: 30 min; for concentration at 2 h: 120 min; for concentration at 1 h: 60 min.
For data set [5], the system named is β-lactamase producing strains of S. aureus. The data set is described as follows: Therapeutic efficacy of amoxicillin in combinations with BL-P2024 in infected mice (Table 7). Format: in vivo. Particulars: Staphylococcus aureus, po, read-out: PD50/Treatment.
A further data set deals with bacteria. To be noted: cited from earlier work.
Data set [6] has as its system β-lactamase-producing strains. Particulars: in vitro and in vivo; cited from earlier work.
A further data set concerns β-lactamase. To be noted: cited from earlier work.
[7] abbreviates: oral 25 mg/kg, read-out: Blood level.
Where [8] appears, read: oral 50 mg/kg, read-out: Blood level.
The mark [9] stands for this setting: oral 100 mg/kg, read-out: Blood level.
The mark [10] stands for this setting: oral 200 mg/kg, assay organism S. aureus A9606, read-out: Blood level.

`CC1(C)[C@H](C(=O)O)N2C(=O)C(Br)[C@H]2S1(=O)=O` (stereo partly drawn) [(2S,5R,6S)-6β-Bromo-3,3-dimethyl-7-oxo-4-thia-1-azabicyclo[3.2.0]heptane-2-carboxylic acid, S,S-dioxide]: the “inhibition of RTEM” value with β-lactamase enzyme RTEM was “inhibit the action of the β-lactamase enzyme RTEM”.
Turning to `CC1(CCl)C(C(=O)O)N2C(=O)CC2S1(=O)=O` (stereo not drawn) [BL-P2013 free acid, 2β-chloromethyl-2α-methylpenam-3α-carboxylic acid sulfone], the hygroscopicity result in “Hygroscopicity” is “hygroscopic”. The storage stability entry in data set [1] is “unstable”.
For `CC(C)(C)C(=O)OCOC(=O)C1N2C(=O)CC2S(=O)(=O)C1(C)CCl` (stereo not drawn) [BL-P2024, Pivaloyloxymethyl 2β-Chloromethyl-2α-methylpenam-3α-carboxylate Sulfone], the concentration at […] in data set [2] (100 mg/kg, oral 100 mg/kg, 15 min) was 13100 ng/mL; in data set [2] (200 mg/kg, oral 200 mg/kg, 150 min), more than 2500 ng/mL; in [4] (oral 25 mg/kg, 15 min, read-out: Blood level) it was 5900 ng/mL; in data set [4] (oral 25 mg/kg, 90 min, read-out: Blood level), 1900 ng/mL; in [4] (oral 25 mg/kg, 150 min, read-out: Blood level) it was 700 ng/mL; in [4] (oral 50 mg/kg, 15 min, read-out: Blood level), 7700 ng/mL. In addition, the concentration at […] in data set [4] (oral 50 mg/kg, 90 min, read-out: Blood level) was 4700 ng/mL; in [4] (oral 50 mg/kg, 150 min, read-out: Blood level), 2300 ng/mL; in data set [4] (oral 100 mg/kg, 15 min, read-out: Blood level), 12300 ng/mL; in data set [4] (oral 100 mg/kg, 90 min, read-out: Blood level), 7200 ng/mL; in data set [4] (oral 100 mg/kg, 150 min, read-out: Blood level), 4600 ng/mL; in data set [4] (oral 200 mg/kg, 15 min, assay organism S. aureus A9606, read-out: Blood level), 14700 ng/mL. In addition, in [4] (oral 200 mg/kg, 90 min, assay organism S. aureus A9606, read-out: Blood level), the concentration at […] is 8700 ng/mL. Further, the half-life in data set [2] (100 mg/kg, oral 100 mg/kg, assay organism E. coli A-9675) came out at 70 min; in [2] (100 mg/kg, oral 100 mg/kg, assay organism S. aureus A-9606), 60 min; in [2] (200 mg/kg, oral 200 mg/kg, assay organism S. aureus A-9606), 60 min; in data set [4] (oral 25 mg/kg), 40 min; in data set [4] (oral 50 mg/kg), 60 min; in [4] (oral 100 mg/kg), 85 min. Further, the half-life in data set [4] (oral 200 mg/kg, assay organism S. aureus A9606) was found to be 60 min. For the same compound, the concentration at 1 h in “in vivo” came out at 7800 ng/mL; in [4] (setting [8]) it was 6300 ng/mL; in [4] (setting [9]), 9400 ng/mL; in data set [4] (setting [10]), 9800 ng/mL. Besides, the PD50/Treatment in [3] (E. coli A9675, challenge 6 × 10^5, vehicle TCMC) is given as more than 200 mg/kg; in [3] (E. coli A9675, challenge 7 × 10^5, vehicle 50% DMSO), more than 25 mg/kg; in data set [3] (E. coli A9675, challenge 7 × 10^5, vehicle TCMC), more than 25 mg/kg; in [3] (E. coli A9675, challenge 9 × 10^5, vehicle 50% DMSO), more than 25 mg/kg. Further, the concentration at 0.5 h in data set [4] (setting [7]) came out at 6200 ng/mL; in [4] (setting [8]), 9500 ng/mL; in data set [4] (setting [9]), 12200 ng/mL; in data set [4] (setting [10]), 14400 ng/mL. Also, the results for the concentration at 2 h in data set [4] (setting [7]), in data set [4] (setting [9]) and in data set [4] (setting [10]) were 1300 ng/mL, 5700 ng/mL and 5100 ng/mL, respectively. The ED50 in data set [5] (S. aureus A15091, challenge 5 × 10^8, vehicle TCMC) was more than 200 mg/kg; in data set [5] (S. aureus A20379, challenge 5 × 10^8, vehicle TCMC), 200 mg/kg.
Turning to `CC1(C)[C@H](C(=O)O)N2C(=O)C[C@H]2S1(=O)=O` [CP-45899], the antibacterial activity result in the data set on bacteria is “weak antibacterial activity”. Moreover, the potentiation of ampicillin entry in data set [6] was “potentiates the in vitro and in vivo activities of ampicillin”. The β-lactamase inhibition entry in the data set on β-lactamase is on record as “irreversibly acting β-lactamase inhibitor”.

In general, half-life refers to the time needed for the level to fall by half in the phase considered.
